For assay [1], the target named is T1, CDK2/cyclin A (Homo sapiens, UniProt P24941).
T1 construct: made in house; host or cells: CDK2: insect cells (baculovirus); cyclin A: E. coli
The assay can be described thus: Inhibition of CDK2/Cyclin A Retinoblastoma Kinase Activity. Format: biochemical. Conditions: apparent Ki. Here is the method: (§1) Cyclin-dependent kinase activity was measured by quantifying the enzyme-catalyzed, time-dependent incorporation of radioactive phosphate from [^32P]ATP or [^33P]ATP into a protein substrate. Unless noted otherwise, assays were performed in 96-well plates in a total volume of 50 μL, in the presence of 10 mM HEPES (N-[2-hydroxyethyl]piperazine-N′-[2-ethanesulfonic acid]) (pH 7.4), 10 mM MgCl2, 25 μM adenosine triphosphate (ATP), 1 mg/mL ovalbumin, 5 μg/mL leupeptin, 1 mM dithiothreitol, 10 mM beta-glycerophosphate, 0.1 mM sodium vanadate, 1 mM sodium fluoride, 2.5 mM ethylene glycol-bis(β-aminoethyl ethKer)-N,N,N′N′-tetraacetic acid (EGTA), 2% (v/v) dimethylsulfoxide, and 0.03–0.4 μCi [^32/33P]ATP per reaction. Reactions were initiated with appropriate enzyme, incubated at 30° C., and terminated after 20 minutes by the addition of ethylenediaminetetraacetic acid (EDTA) to 250 mM. The phosphorylated substrate was then captured on a nitrocellulose or phosphocellulose membrane using a 96-well filtration manifold, and unincorporated radioactivity was removed by repeated washing with 0.85% phosphoric acid. Radioactivity was quantified by exposing the dried membranes to a phosphorimager.
(§2) Apparent Ki values were measured by assaying enzyme activity in the presence of different inhibitor compound concentrations and subtracting the background radioactivity measured in the absence of enzyme. Inhibition data were fit to an equation for competitive inhibition using Kaleidagraph (Synergy Software), or were fit to an equation for competitive tight-binding inhibition using the software KineTic (BioKin, Ltd.).
Inhibition of CDK2/Cyclin A Retinoblastoma Kinase Activity
CDK2 was purified using published methodology (Rosenblatt et al., “Purification and Crystallization of Human Cyclin-dependent Kinase 2,” J. Mol. Biol., vol. 230, 1993, pp. 1317–1319) from insect cells that had been infected with a baculovirus expression vector. […] A complex of CDK2 and proteolyzed cyclin A was prepared and purified by gel filtration. The substrate for this assay was the same Rb substrate fragment used for the CDK4 assays, and the methodology of the CDK2/cyclin A and the CDK4/cyclin D3 assays was essentially the same, except that CDK2 was present at 150 nM or 5 nM. Ki values were measured as described above.

For assay [2], the target named is CDK4/cyclin D3 (Homo sapiens, UniProt P11802). The assay can be described thus: Inhibition of CDK4/Cyclin D Retinoblastoma Kinase Activity. The class given is biochemical. Conditions: apparent Ki. Here is the method:
as §1, §2
Inhibition of CDK4/Cyclin D Retinoblastoma Kinase Activity
A complex of human CDK4 and cyclin D3, or a complex of human CDK4 and genetically truncated (1–264) cyclin D3, was purified using traditional biochemical chromatographic techniques from insect cells that had been co-infected with the corresponding baculovirus expression vectors (see e.g., Meijer and Kim, “Chemical Inhibitors of Cyclin-Dependent Kinases,” Methods in Enzymol,. vol. 283 (1997), pp. 113–128.). The enzyme complex (5 or 50 nM) was assayed with 0.3–0.5 μg of purified recombinant retinoblastoma protein fragment (Rb) as a substrate. The engineered Rb fragment (residues 386–928 of the native retinoblastoma protein; 62.3 kDa) contains the majority of the phosphorylation sites found in the native 106-kDa protein, as well as a tag of six histidine residues for ease of purification. Phosphorylated Rb substrate was captured by microfiltration on a nitrocellulose membrane and quantified using a phosphorimager as described above. For measurement of tight-binding inhibitors, the enzyme complex concentration was lowered to 5 nM, and the assay duration was extended to 60 minutes, during which the time-dependence of product formation was linear.

The subject of assay [3] is HCT 116 cell line. Put plainly: Inhibition of Cell Growth (MTT tetrazolium salt assay). Format: cell-based. Conditions: Homo sapiens. Here is the method: Inhibition of Cell Growth: Assessment of Cytotoxicity
Inhibition of cell growth was measured using the tetrazolium salt assay, which is based on the ability of viable cells to reduce 3-(4,5-dimethylthiazol-2-yl)-2,5-[2H]-diphenyltetrazolium bromide (MTT) to formazan (Mossman, Journal of Immunological Methods, vol. 65 (1983), pp. 55–58). The water-insoluble purple formazan product was then detected spectrophotometrically. The HCT 116 cell line was grown in 96-well plates. Cells were plated in the appropriate medium at a volume of 135 μl/well in McCoy's 5A Medium. Plates were incubated for four hours before addition of inhibitor compounds. Different concentrations of inhibitor compounds were added in 0.5% (v/v) dimethylsulfoxide (15 μL/well), and cells were incubated at 37° C. (5% CO2) for four to six days (depending on cell type). At the end of the incubation, MTT was added to a final concentration of 0.2 mg/mL, and cells were incubated for 4 hours more at 37° C. After centrifugation of the plates and removal of medium, the absorbance of the formazan (solubilized in dimethylsulfoxide) was measured at 540 nm. The concentration of inhibitor compound causing 50% inhibition of growth was determined from the linear portion of a semi-log plot of inhibitor concentration versus percentage inhibition. All results were compared to control cells treated only with 0.5% (v/v) dimethylsulfoxide.
For orientation: Tetrazolium assays rely on reduction of a dye to a coloured formazan, in cell work by metabolically active cells.

Setting [4] is: HCT 116, MTT, 50% inhibition of growth, read-out: HCT 116 IC50.
Setting [5] is: HCT 116, MTT, IC90, read-out: HCT 116 IC90.
Where [6] appears, read: HCT-116, read-out: HCT 116 IC50 (uM).
The mark [7] stands for this setting: HCT-116, read-out: HCT 116 IC90 (uM).

Like-named read-outs stand apart in the source and are kept apart here.

As a reminder, the IC50 is the concentration needed to halve the response being measured. A word on the IC90: it is the point of the concentration-response curve where the effect stands at 90%.

Sequence of CDK4/cyclin D3 (P11802 2-303 limits assumed): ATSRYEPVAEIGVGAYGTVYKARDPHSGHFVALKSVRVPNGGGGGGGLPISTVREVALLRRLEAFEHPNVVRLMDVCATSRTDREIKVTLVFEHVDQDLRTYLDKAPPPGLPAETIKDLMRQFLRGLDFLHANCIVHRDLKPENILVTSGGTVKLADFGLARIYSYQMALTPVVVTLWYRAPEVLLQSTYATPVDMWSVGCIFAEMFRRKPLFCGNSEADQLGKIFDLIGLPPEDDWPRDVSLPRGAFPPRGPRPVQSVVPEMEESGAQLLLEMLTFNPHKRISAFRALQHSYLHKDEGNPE
Sequence of CDK4/cyclin D3 (P30281 1-264 limits assumed, further chain): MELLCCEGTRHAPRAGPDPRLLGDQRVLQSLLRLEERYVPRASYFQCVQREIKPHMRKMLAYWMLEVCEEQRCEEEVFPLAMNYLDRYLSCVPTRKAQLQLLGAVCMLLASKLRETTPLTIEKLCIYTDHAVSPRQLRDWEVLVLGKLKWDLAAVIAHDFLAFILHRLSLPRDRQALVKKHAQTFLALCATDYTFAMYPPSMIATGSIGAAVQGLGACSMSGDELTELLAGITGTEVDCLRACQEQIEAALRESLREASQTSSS

Turning to `Cc1c(CNCCO)cncc1-c1ccc2[nH]nc(-c3nc4ccccc4[nH]3)c2c1` [Example 89, 2-({5-[3-(1H-Benzoimidazol-2-yl)-1H-indazol-5-yl]-4-methyl-pyridin-3-ylmethyl}-amino)-ethanol], the Ki worked out at 0.94 nM in assay [1] and 1 nM in assay [2]. The IC50 in assay [3] (setting [4]) stood at 0.15 µM. In addition, the IC90 in assay [3] (setting [5]) amounted to 0.25 µM.
`CC(=O)N1CCCc2c(-c3ccc4[nH]nc(-c5nc6ccccc6[nH]5)c4c3)cncc21` [Example 63, 1-{5-[3-(1H-Benzoimidazol-2yl)-1H-indazol-5-yl]-3,4-dihydro-2H-[1,7]naphthyridin-1-yl}-ethanone]: the results for the Ki in assay [1] and in assay [2] were 1.2 nM and 220 nM, respectively. In assay [3] (setting [4]), the IC50 was 0.43 µM. For the same molecule, the IC90 in assay [3] (setting [5]) is 1.3 µM.
In the case of `Cc1nc(-c2n[nH]c3ccc(-c4cncc5ccccc45)cc23)[nH]c1-c1ccccc1` [Example 67, 4-[3-(4-Methyl-5-phenyl-1H-imidazol-2-yl)-1H-indazol-5-yl]-isoquinoline], the values for the Ki in assay [1] and in assay [2] were 16 nM and 220 nM, respectively. The IC50 in assay [3] (setting [6]) amounted to 2 µM. In addition, the IC90 in assay [3] (setting [7]) was 4.7 µM.
For `Cc1c(CNC2CCCC2)cncc1-c1ccc2[nH]nc(-c3nc4ccccc4[nH]3)c2c1` [Example 92, {5-[3-(1H-Benzoimidazol-2-yl)-1H-indazol-5-yl]-4-methyl-pyridin-3-ylmethyl}-cyclopentyl-amine], the Ki in assay [1] is 2.7 nM; in assay [2] it was 7.8 nM. The IC50 in assay [3] (setting [4]) was determined as 0.18 µM. The IC90 in assay [3] (setting [5]) stood at 0.5 µM.
For `Cc1c(CNCC(C)C)cncc1-c1ccc2[nH]nc(-c3nc4ccccc4[nH]3)c2c1` [Example 87, {5-[3-(1H-Benzoimidazol-2-yl)-1H-indazol-5-yl]-4-methyl-pyridin-3-ylmethyl}-isobutyl-amine], in that order: 1.9 nM, 4.2 nM, 0.16 µM and 0.42 µM.
`Cc1c(CN2CCOCC2)cncc1-c1ccc2[nH]nc(-c3nc4ccccc4[nH]3)c2c1` [Example 91, 3-(1H-Benzoimidazol-2-yl)-5-(4-methyl-5-morpholin-4-ylmethyl-pyridin-3-yl)-1H-indazole]: the Ki in assay [1] turned out to be 2.8 nM; in assay [2], 7.5 nM. Moreover, the IC50 in assay [3] (setting [4]) turned out to be 0.34 µM. Also, the IC90 in assay [3] (setting [5]) is more than 0.5 µM.
With `Cc1c(O)cncc1-c1ccc2[nH]nc(-c3nc4ccccc4[nH]3)c2c1` [Example 77, 5-[3-(1H-Benzoimidazol-2-yl)-1H-indazol-5-yl]-4-methyl-pyridin-3-ol], the figures for the Ki in assay [1] and in assay [2] were 0.38 nM and 5.8 nM, respectively. Moreover, the IC50 in assay [3] (setting [4]) amounted to 0.31 µM. Further, the IC90 in assay [3] (setting [5]) stood at 0.5 µM.
Turning to `c1ccc2c(-c3ccc4[nH]nc(-c5nc6c([nH]5)CCCC6)c4c3)cncc2c1` [Example 66, 4-[3-(4,5,6,7-Tetrahydro-1H-benzoimidazol-2-yl)-1H-indazol-5-yl]-isoquinoline], the Ki in assay [1] was found to be 1 nM; in assay [2], 55 nM. Further, the IC50 in assay [3] (setting [4]) amounted to 0.49 µM. For the same molecule, the IC90 in assay [3] (setting [5]) was 1.6 µM.
Consider `CCNCc1cncc(-c2ccc3[nH]nc(-c4nc5c(SC)cccc5[nH]4)c3c2)c1C` [Example 81, Ethyl-4-{methyl-5-[3-(4-methylsulfanyl-1H-benzoimidazol-2-yl)-1H-indazol-5-yl]-pyridin-3-ylmethyl}-amine], for which the Ki came out at 4.9 nM in assay [1] and 0.8 nM in assay [2]. In assay [3] (setting [5]), the 90% effect concentration (IC90) was 0.21 µM.
In the case of `Cc1c(-c2ccc3[nH]nc(-c4nc5ccccc5[nH]4)c3c2)ccc(CCCO)c1O` [Example 26, 3-[3-(1H-Benzoimidazol-2-yl)-1H-indazol-5-yl]-6-(3-hydroxy-propyl)-2-methyl-phenol], the values for the Ki in assay [1] and in assay [2] were 72 nM and 83 nM, respectively. Further, the IC50 in assay [3] (setting [4]) was 2.8 µM. Besides, the IC90 in assay [3] (setting [5]) came to 5 µM.
For `Cc1c(CNc2cccnc2)cncc1-c1ccc2[nH]nc(-c3nc4ccccc4[nH]3)c2c1` [Example 93, {5-[3-(1H-Benzoimidazol-2-yl)-1H-indazol-5-yl]-4-methyl-pyridin-3-ylmethyl}-pyridin-3-yl-amine], in that order: 0.61 nM, 1.9 nM, 0.32 µM and more than 0.5 µM.
With `Cc1c(CNCc2ccccc2)cncc1-c1ccc2[nH]nc(-c3nc4ccccc4[nH]3)c2c1` [Example 88, {5-[3-(1H-Benzoimidazol-2-yl)-1H-indazol-5-yl]-4-methyl-pyridin-3-ylmethyl}-benzyl-amine], the Ki came out at 1.4 nM in assay [1] and 3.5 nM in assay [2]. Moreover, the concentration for half-maximal inhibition (IC50) in assay [3] (setting [4]) is more than 0.5 µM. Besides, the IC90 in assay [3] (setting [5]) is more than 0.5 µM.
Regarding `CC(C)(C)NCc1cccc2[nH]c(-c3n[nH]c4ccc(-c5cncc6ccccc56)cc34)nc12` [Example 39, tert-Butyl-[2-(5-isoquinolin-4-yl-1H-indazol-3-yl)-1H-benzoimidazol-4-ylmethyl]-amine], the Ki came out at 1.1 nM in assay [1] and 9 nM in assay [2]. In addition, the 50% inhibitory concentration (IC50) in assay [3] (setting [4]) came to 0.018 µM. In addition, the IC90 in assay [3] (setting [5]) amounted to 0.06 µM.
For the molecule `c1ccc(CNc2cccc3c(-c4ccc5[nH]nc(-c6nc7ccccc7[nH]6)c5c4)cncc23)cc1` [Example 57], the Ki in assay [1] is 37 nM; in assay [2], 650 nM. The IC50 in assay [3] (setting [6]) stood at 2 µM. For the same molecule, the IC90 in assay [3] (setting [7]) was 5 µM.
For the molecule `C(=N\n1cccc1)/c1n[nH]c2ccc(-c3cncc4ccccc34)cc12` [Example 79, (5-Isoquinolin-4-yl-1H-indazol-3-ylmethylene)-pyrrol-1-yl-amine], the Ki worked out at 0.42 nM in assay [1] and 2.2 nM in assay [2]. For the same molecule, the IC50 in assay [3] (setting [4]) came to 0.5 µM. The concentration for an effect of 90% (IC90) in assay [3] (setting [5]) turned out to be 0.5 µM.
`CC(=O)Nc1cccc2c(-c3ccc4[nH]nc(-c5nc6ccccc6[nH]5)c4c3)cncc12` [Example 56, N-{4-[3-(1H-Benzoimidazol-2-yl)1H-indazol-5-yl]-isoquinolin-8-yl}-acetamide]: the Ki in assay [1] turned out to be 1 nM; in assay [2] it was 36 nM. The IC50 in assay [3] (setting [4]) worked out at 0.48 µM. The IC90 in assay [3] (setting [5]) came out at 1.3 µM.
Take `Cc1c(-c2ccc3[nH]nc(-c4nc5ccccc5[nH]4)c3c2)cncc1-c1ccccn1` [Example 62]: the Ki in assay [1] came to 3.7 nM; in assay [2] it was 50 nM. In assay [3] (setting [4]), the IC50 was found to be 1 µM. For the same molecule, the IC90 in assay [3] (setting [5]) worked out at 2.4 µM.

For the origin of these results see patent US7232912B2, “Indazole compounds, pharmaceutical compositions, and methods for mediating or inhibiting cell proliferation” (Agouron Pharmaceuticals, Inc., priority 2000, dated 2007).
